Measured values taken from ChEMBL document CHEMBL2046317, “A-ring dihalogenation increases the cellular activity of combretastatin-templated tetrazoles” (ACS Med Chem Lett, 2012).

What was measured:
HUVEC = assay: Antivascular activity against HUVEC after 24 hrs by xCELLigence assays; format: functional, cell-based; details: Homo sapiens
SK-OV-3 [1] = assay: Cell cycle arrest in human SKOV3 cells assessed as accumulation at G2/M phase at 5 nM by FACS analysis; format: functional
SK-OV-3 [2] = assay: Growth inhibition of human SKOV3 cells after 48 hrs by SRB assay; format: functional, cell-based; details: SK-OV-3, 48 h
SK-OV-3 [3] = assay: Growth inhibition of paclitaxel-resistant human SKOV3 cells after 48 hrs by SRB assay; format: functional, cell-based; details: SK-OV-3, 48 h
MCF7 = assay: Growth inhibition of human MCF7 cells after 48 hrs by SRB assay; format: functional, cell-based; details: MCF7, 48 h
A549 = assay: Growth inhibition of human A549 cells after 48 hrs by SRB assay; format: functional, cell-based; details: A549, 48 h
PC-3 = assay: Growth inhibition of human PC3 cells after 48 hrs by SRB assay; format: functional, cell-based; details: PC-3, 48 h
DLD-1 = assay: Growth inhibition of human DLD1 cells after 48 hrs by SRB assay; format: functional, cell-based; details: DLD-1, 48 h
HT-29 = assay: Growth inhibition of combretastatin-resistant human HT-29 cells after 48 hrs by SRB assay; format: functional, cell-based; details: HT-29, 48 h
MRC5 = assay: Growth inhibition of human MRC5 cells after 48 hrs by SRB assay; format: cell-based; details: MRC5, 48 h
Bos taurus = organism: Bos taurus; assay: Inhibition of purified bovine tubulin polymerization at 5 uM measured 30 secs intervals for 60 mins by spectrophotometer analysis relative to control
[4] = Inhibition of tubulin polymerization
SK-OV-3 [5] = assay: Cell cycle arrest in human SKOV3 cells assessed as accumulation at sub-G1 phase at 5 nM by FACS analysis; format: functional

SMILES | IC50 (SK-OV-3 [2]) | IC50 (SK-OV-3 [3]) | IC50 (MCF7) | IC50 (A549) | IC50 (PC-3) | IC50 (DLD-1) | IC50 (HT-29) | fold change (FC) (Bos taurus) | IC50 (HUVEC) | Activity (SK-OV-3 [1]) | IC50 (MRC5) | IC50 [4] | Activity (SK-OV-3 [5])
COc1ccc(-c2nnnn2-c2cc(OC)c(OC)c(OC)c2)cc1O | 9.5 nM | 11 nM | 21 nM | 22 nM | 9 nM | 24 nM | > 500 nM | 2.9 | 13.6 nM | 25% | 12 nM | – | –
COc1ccc(/C=C\c2cc(I)c(OC)c(I)c2)cc1O | 5 nM | – | – | – | – | – | – | – | 1.9 nM | 84% | – | – | –
COc1ccc(-c2nnnn2-c2cc(OC)c(OC)c(OC)c2)cc1N | – | – | – | – | – | – | – | – | – | – | – | 2000 nM | –
COc1ccc(/C=C\c2cc(OC)c(OC)c(OC)c2)cc1O [COMBRETASTATIN A4] | – | 4.2 nM | 3 nM | 7.9 nM | 2.9 nM | 3.3 nM | 538 nM | 3 | – | 31% | 2.8 nM | – | <5%
COc1ccc(/C=C\c2cc(Br)c(OC)c(Br)c2)cc1O | 5 nM | – | – | – | – | – | – | – | 3 nM | 52% | – | – | –

Further lines, with some results ahead:

IC50 (SK-OV-3 [2]) | IC50 (SK-OV-3 [3]) | IC50 (MCF7) | IC50 (A549) | IC50 (PC-3) | IC50 (DLD-1) | IC50 (HT-29) | fold change (FC) (Bos taurus) | SMILES | IC50 (HUVEC) | Activity (SK-OV-3 [1]) | IC50 (MRC5) | IC50 [4] | Activity (SK-OV-3 [5])
6.1 nM | 5.6 nM | 7 nM | 21 nM | 2.9 nM | 8.2 nM | > 500 nM | 1.5 | COc1ccc(-c2nnnn2-c2cc(Br)c(OC)c(Br)c2)cc1O | 6.6 nM | 40% | 5.7 nM | – | –
2.6 nM | 1.4 nM | 1.9 nM | 2.8 nM | 0.5 nM | 2.4 nM | 513 nM | 1.7 | COc1ccc(-c2nnnn2-c2cc(I)c(OC)c(I)c2)cc1O | 2.4 nM | 89% | 2.2 nM | – | –
